Measured values from PubChem BioAssay (NCI).
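Method: 48-hour compound exposure of cells in 96-well plates, five concentrations, linear interpolation of endpoints. The concentration for full growth arrest is given as TGI.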

Assays:
Assay in all cases: NCI-60 cell line screen, 48 h
A498 renal = system: A498 renal
CAKI-1 renal = system: CAKI-1 renal
CCRF-CEM leukemia = system: CCRF-CEM leukemia
COLO 205 colon = system: COLO 205 colon
DU-145 prostate = system: DU-145 prostate
HCT-15 colon = system: HCT-15 colon
HOP-62 NSCLC = system: HOP-62 NSCLC
HOP-92 NSCLC = system: HOP-92 NSCLC
IGROV1 ovarian = system: IGROV1 ovarian
LOX IMVI melanoma = system: LOX IMVI melanoma
MCF7 breast = system: MCF7 breast
NCI-H23 lung = system: NCI-H23 lung
NCI-H460 lung = system: NCI-H460 lung
OVCAR-4 ovarian = system: OVCAR-4 ovarian
OVCAR-8 ovarian = system: OVCAR-8 ovarian
SK-MEL-28 melanoma = system: SK-MEL-28 melanoma
SK-OV-3 ovarian = system: SK-OV-3 ovarian
SNB-19 CNS = system: SNB-19 CNS
SW-620 colon = system: SW-620 colon
U251 CNS = system: U251 CNS

| SMILES | TGI (A498 renal) [µM] | TGI (CAKI-1 renal) [µM] | TGI (CCRF-CEM leukemia) [µM] | TGI (COLO 205 colon) [µM] | TGI (DU-145 prostate) [µM] | TGI (HCT-15 colon) [µM] | TGI (HOP-62 NSCLC) [µM] | TGI (HOP-92 NSCLC) [µM] | TGI (IGROV1 ovarian) [µM] | TGI (LOX IMVI melanoma) [µM] | TGI (MCF7 breast) [µM] | TGI (NCI-H23 lung) [µM] | TGI (NCI-H460 lung) [µM] | TGI (OVCAR-4 ovarian) [µM] | TGI (OVCAR-8 ovarian) [µM] | TGI (SK-MEL-28 melanoma) [µM] | TGI (SK-OV-3 ovarian) [µM] | TGI (SNB-19 CNS) [µM] | TGI (SW-620 colon) [µM] | TGI (U251 CNS) [µM] |
| --- | --- | --- | --- | --- | --- | --- | --- | --- | --- | --- | --- | --- | --- | --- | --- | --- | --- | --- | --- | --- |
| Cn1cc(-c2cnc(-c3cn(C)c4ccccc34)cn2)c2ccccc21 | > 41.4 | > 100 | 3.58 | 15.6 | > 58.5 | 47.4 | > 100 | > 100 | > 50.5 | 35.9 | > 27.1 | 37.6 | > 100 | > 100 | 44.5 | > 79.2 | > 100 | > 100 | > 38.6 | 40.2 |
| CC(=O)OC[C@@H]1[C@H]2CC[C@]3(C)[C@@H](OC(C)=O)CC[C@H]3[C@@H]2CC[C@H]1C1(C)SCCS1 | > 25 | > 25 | > 25 | > 25 | > 25 | > 25 | > 25 | > 25 | > 25 | > 25 | > 25 | > 25 | > 25 | > 25 | > 25 | > 25 | – | > 25 | > 25 | > 25 |
| Oc1ccc2oc3c(O)c4ccccc4cc3c2c1 | 9.33 | 68.7 | 8.47 | 28 | 15.6 | 21.3 | > 100 | 41.6 | 4.21 | 21.9 | 18.8 | 65.3 | 53.9 | 13 | 16.5 | > 100 | 53.2 | > 100 | 14.1 | 21.1 |
| N#Cc1c(NCCc2ccc(F)cc2)c2ccccc2n2c1nc1ccccc12 | 53.1 | 29.1 | > 100 | > 100 | 98.1 | > 100 | > 100 | 19.8 | 39.9 | > 100 | > 100 | 39.1 | > 100 | 9.16 | 25.4 | > 100 | > 100 | 51 | > 100 | 61 |
| CCN(CC)CCCNc1nc(=O)[nH]c(C)c1C(=O)Nc1c2ccccc2nc2ccccc12 | 31.8 | 56 | > 100 | 23.5 | > 100 | 72.8 | > 100 | 13.3 | 72.6 | 45.4 | > 100 | 42.8 | – | 86.3 | 59.1 | > 100 | 59 | 62.2 | > 100 | > 100 |
| CCOC(=O)[C@H](O)[C@@H](O)C(=O)NCc1ccc(C(=O)c2ccccc2)cc1 | > 100 | > 100 | > 100 | > 100 | > 100 | > 100 | > 100 | > 100 | > 100 | > 100 | > 100 | > 100 | > 100 | > 100 | > 100 | > 100 | > 100 | > 100 | > 100 | > 100 |
| CSCCC(N)P(C)(=O)O (centres undefined) | > 100 | > 100 | > 100 | > 100 | > 100 | > 100 | > 100 | > 100 | > 100 | > 100 | > 100 | > 100 | > 100 | > 100 | > 100 | > 100 | > 100 | > 100 | > 100 | > 100 |
| COc1ccc(/C=C2\N=C3Sc4c(nc[nH]c4=O)N3C2=O)cc1 | > 100 | > 100 | > 100 | > 100 | > 100 | > 100 | > 100 | > 100 | > 100 | > 100 | > 100 | > 100 | – | > 100 | > 100 | > 100 | > 100 | > 100 | > 100 | > 100 |
| O=C(O)C1=C(C(=O)O)N(c2ccncc2)C(c2ccco2)=CC1c1ccccc1[N+](=O)[O-] (centres undefined) | 28.1 | 34.6 | > 23.8 | 31.1 | 24.9 | 4.25 | 33.7 | 22.1 | 4.84 | 4.02 | 10.1 | 25.8 | 28.9 | 25.9 | > 59 | > 54.8 | 44.1 | 35.5 | > 27.1 | 28 |
| CN1C(=O)N/C(=C\c2ccc(S(=O)(=O)N/N=C\C(O)C(O)C(O)CO)cc2)C1=O (centres undefined) | > 100 | > 100 | > 100 | > 100 | > 100 | > 100 | > 100 | > 100 | > 100 | > 100 | > 100 | > 100 | > 100 | > 100 | > 100 | > 100 | > 100 | > 100 | > 100 | > 100 |
| O=C(c1ccc2ccccc2c1)N(Cc1cccnc1)C(=S)N(Cc1cccnc1)C(=O)c1ccc2ccccc2c1 | > 100 | 44 | > 100 | 75.1 | 69.5 | > 100 | 55.2 | 69.7 | – | 37 | > 100 | 63.7 | 95.7 | 45.3 | 66.5 | > 100 | > 100 | > 100 | > 100 | 38.6 |
| O=c1ssc(Cl)c1Nc1c(Cl)ssc1=O | 31.7 | 32 | > 23.5 | 31.5 | 32.3 | 39.6 | 42.4 | 41.6 | 34.2 | 31.2 | > 63 | 38.8 | 34.6 | 35.8 | 51.3 | > 61.8 | 59 | 69.1 | > 54.4 | 36.8 |
| Fc1ccc(OCc2nc3cc(C(F)(F)F)ccc3nc2-c2ccccc2)cc1 | > 100 | > 100 | > 93.1 | > 100 | > 100 | > 100 | > 100 | > 100 | > 100 | > 100 | > 100 | > 100 | > 100 | > 100 | > 100 | > 100 | – | > 100 | > 100 | > 100 |
| CC(=O)Nc1sc([N+](=O)[O-])cc1S(=O)(=O)c1ccc(Cl)cc1 | > 27.9 | > 20.8 | > 100 | 1.77 | > 40.8 | > 95 | 3.99 | 12.7 | > 100 | > 100 | 9.41 | 14.1 | 10.2 | > 100 | > 100 | > 100 | 15.6 | > 100 | > 100 | > 35.5 |
| O=C1c2ccccc2C(=O)c2c1ccc1nc3c(nc21)-c1c2ccccc2cc2cccc-3c12 | > 82.5 | > 100 | > 100 | > 100 | > 81.7 | > 100 | > 91.6 | > 100 | > 57.4 | > 100 | > 91.5 | > 100 | > 100 | > 100 | > 100 | > 100 | > 100 | > 100 | > 100 | > 100 |
| Cc1cnc(-c2c[nH]c3ccccc23)nc1-c1c[nH]c2ccccc12 | 7.03 | 23.2 | 4.92 | 16.8 | 20.1 | 27 | 24.8 | 7.21 | 14.8 | 17.1 | 19.1 | – | 14.8 | 24.3 | 22.7 | – | 24 | 24.9 | 30.2 | 19.7 |
| COc1ccc2c(c1)c1c(n2CCN(C)C)-c2cccc(OC)c2CC1 | 44.9 | 29.1 | 15.1 | 27.7 | 39.5 | 45.9 | 27.6 | 44.2 | 39 | 37.4 | 29.5 | 36.9 | 41.5 | 46.9 | 42.4 | 32 | 35 | 46.8 | – | 32.6 |
| CCC1(CCSC(=N)N)C(=O)NC(=O)NC1=O | > 100 | > 100 | > 100 | > 100 | > 100 | > 100 | > 100 | > 100 | > 100 | > 100 | > 100 | > 100 | > 100 | > 100 | > 100 | > 100 | > 100 | > 100 | > 100 | > 100 |
| O=c1oc2nc(-c3ccccc3)cc(C(F)(F)F)c2n1Cc1ccccc1 | 9.48 | > 100 | > 26.1 | > 100 | > 100 | > 100 | > 100 | > 100 | > 43.5 | > 100 | > 100 | > 59.6 | > 100 | > 100 | > 100 | > 100 | > 100 | > 100 | > 100 | > 100 |
| CCCCOC(=O)NC(Nc1ccc(S(=O)(=O)Nc2ccc(OC)nn2)cc1)(C(F)(F)F)C(F)(F)F | > 100 | > 100 | > 100 | > 100 | > 100 | > 100 | > 100 | > 100 | > 100 | > 100 | > 100 | > 100 | > 100 | > 100 | > 100 | > 100 | > 100 | > 100 | > 100 | > 100 |
| O1C2C1C1OC1C1OC1C1OC21 (centres undefined) | > 100 | > 100 | > 100 | > 100 | > 100 | > 100 | > 100 | > 100 | – | > 100 | > 100 | > 100 | – | > 100 | > 100 | > 100 | > 100 | > 100 | – | > 100 |
| CCOC(=O)CC1(O)CCCCC1(Sc1ccc(C)cc1)Sc1ccc(C)cc1 (centres undefined) | > 100 | > 100 | > 100 | > 100 | > 100 | > 100 | > 100 | > 100 | – | > 100 | > 100 | > 100 | > 100 | > 100 | > 100 | > 100 | > 100 | > 100 | > 100 | > 100 |
| Cc1cccc2c(N)c3cccc(C(=O)NCC[N+](C)(C)Cc4sccc4[N+](=O)[O-])c3nc12 | > 100 | 43.9 | > 100 | 79.3 | > 100 | > 100 | > 100 | > 100 | > 100 | 61 | 25.2 | 30 | – | 35.5 | 35.9 | > 100 | 41.3 | > 100 | > 100 | > 100 |
| O=c1[nH]c(=O)n(C2OC(CO)C(O)C2O)c2ccsc12 (centres undefined) | > 100 | > 100 | > 100 | > 100 | > 100 | > 100 | > 100 | > 100 | > 100 | > 100 | > 100 | > 100 | > 100 | > 100 | – | > 100 | – | – | > 100 | > 100 |
